The numbers were not newly measured in patent publication US11793953B2, “Inhalers and related methods” (Norton (Waterford) Limited, priority 2017, dated 2023), which cites them from elsewhere.

Regarding `FCC(F)(F)F` [HFA134a, 1,1,1,2-tetrafluoroethane], for the setting “as liquid at 25° C.”, the surface tension entry was “about 8 mN/m”. In addition, the vapor pressure (at 20° C.) is 572 kpa.
